Assays:
[1] = biological target: mTORC1 (Homo sapiens, UniProt P42345); assay: mTOR/GbL/Raptor (mTORC1) ELISA Assay; assay type: biochemical; details: phosphorylation of 4E-BP1; 0.2 nM mTORC1, 10 μM ATP
Procedure, shortened: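 Kinase reaction: 0.2 nM mTORC1, 10 μM ATP, 50 nM NHis-4E-BP1 in Hepes pH 7.2 with 10 mM MnCl2, 120 min at ambient temperature. Phospho-4E-BP1 was captured on Ni-chelate plates and detected by anti-phospho-4E-BP1 rabbit IgG, HRP secondary and chemiluminescence.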

[2] = biological target: PI3Kalpha (Homo sapiens, UniProt P42336); assay: PI3K Biochemical Assays (PI3K-alpha assay); details: ATP consumption, luciferase-luciferin; 1 μM ATP, 10 μM PIP2
Sequence of PI3Kalpha (P42336 whole entry, canonical isoform): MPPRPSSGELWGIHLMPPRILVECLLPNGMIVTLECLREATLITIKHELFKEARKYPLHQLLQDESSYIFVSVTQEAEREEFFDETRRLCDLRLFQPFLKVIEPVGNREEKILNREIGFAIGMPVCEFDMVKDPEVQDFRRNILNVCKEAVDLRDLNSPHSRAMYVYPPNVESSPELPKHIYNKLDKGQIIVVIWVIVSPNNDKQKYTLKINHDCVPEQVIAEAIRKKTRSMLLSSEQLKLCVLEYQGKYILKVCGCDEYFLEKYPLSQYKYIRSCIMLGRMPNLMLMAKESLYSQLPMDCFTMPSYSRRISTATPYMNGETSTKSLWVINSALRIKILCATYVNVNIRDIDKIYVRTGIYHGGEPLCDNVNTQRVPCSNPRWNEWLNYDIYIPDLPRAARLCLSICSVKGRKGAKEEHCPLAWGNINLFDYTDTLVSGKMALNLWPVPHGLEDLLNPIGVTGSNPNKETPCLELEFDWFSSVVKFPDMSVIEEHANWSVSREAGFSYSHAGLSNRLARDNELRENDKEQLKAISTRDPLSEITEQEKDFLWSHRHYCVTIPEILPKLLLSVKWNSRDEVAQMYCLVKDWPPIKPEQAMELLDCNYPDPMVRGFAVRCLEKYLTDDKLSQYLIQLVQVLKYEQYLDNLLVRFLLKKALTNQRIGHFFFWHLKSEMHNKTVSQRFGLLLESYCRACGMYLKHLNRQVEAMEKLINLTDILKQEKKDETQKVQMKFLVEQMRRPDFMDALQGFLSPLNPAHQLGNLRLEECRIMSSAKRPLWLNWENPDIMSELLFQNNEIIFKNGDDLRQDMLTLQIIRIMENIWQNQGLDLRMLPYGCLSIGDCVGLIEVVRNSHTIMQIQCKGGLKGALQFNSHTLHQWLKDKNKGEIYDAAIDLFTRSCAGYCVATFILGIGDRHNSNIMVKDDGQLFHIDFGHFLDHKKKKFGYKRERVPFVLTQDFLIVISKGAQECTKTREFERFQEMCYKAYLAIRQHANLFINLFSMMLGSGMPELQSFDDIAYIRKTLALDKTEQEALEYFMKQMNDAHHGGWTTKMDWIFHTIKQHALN
Sequence of PI3Kalpha (P27986 whole entry partner, canonical isoform): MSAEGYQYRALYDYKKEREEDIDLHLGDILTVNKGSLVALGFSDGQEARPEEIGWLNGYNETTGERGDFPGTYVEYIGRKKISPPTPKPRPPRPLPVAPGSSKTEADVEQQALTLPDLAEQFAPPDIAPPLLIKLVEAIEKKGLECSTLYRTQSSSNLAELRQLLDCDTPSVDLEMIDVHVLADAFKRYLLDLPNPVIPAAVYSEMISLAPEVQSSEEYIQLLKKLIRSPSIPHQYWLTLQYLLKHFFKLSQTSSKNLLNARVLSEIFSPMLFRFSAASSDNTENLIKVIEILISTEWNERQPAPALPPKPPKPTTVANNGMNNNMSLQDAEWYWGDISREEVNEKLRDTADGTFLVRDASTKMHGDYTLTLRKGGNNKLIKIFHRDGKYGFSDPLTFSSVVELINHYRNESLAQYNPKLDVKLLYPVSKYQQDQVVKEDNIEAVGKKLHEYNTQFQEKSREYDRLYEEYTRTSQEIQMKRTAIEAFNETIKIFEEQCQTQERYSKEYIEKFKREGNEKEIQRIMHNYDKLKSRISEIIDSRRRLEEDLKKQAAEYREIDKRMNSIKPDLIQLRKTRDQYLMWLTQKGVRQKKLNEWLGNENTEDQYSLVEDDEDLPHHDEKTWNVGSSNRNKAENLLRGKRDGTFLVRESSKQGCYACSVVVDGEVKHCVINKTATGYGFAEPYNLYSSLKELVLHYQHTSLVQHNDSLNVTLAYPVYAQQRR
Procedure, shortened: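 Recombinant PI3Kα 3 nM, ATP 1 μM and PIP2 10 μM in Tris pH 7.5 with 10 mM MgCl2, ~2 h at ambient temperature. ATP depletion (held to 40-60%) was read by Kinase-Glo luminescence for IC50. Other isoforms: β 10 nM, δ 4 nM; γ 40 nM, 1 h, 5 mM MgCl2.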

Row | SMILES | IC50 [1] | IC50 [2]
1 | Cc1nc(N)nc(N2CCOc3ccc(-c4cnc5sc(N)nc5c4)cc3C2)c1C#N [Compound 72, 2-amino-4-[7-(2-amino[1,3]thiazolo[5,4-b]pyridin-6-yl)-2,3-dihydro-1,4-benzoxazepin-4(5H)-yl]-6-methylpyrimidine-5-carbonitrile] | ≤ 100 nM | ≤ 100 nM
2 | Cc1c(N)nc(N)nc1N1CCOc2ccc(-c3cnc4sc(N)nc4c3)cc2C1 [Compound 73, 6-[7-(2-amino[1,3]thiazolo[5,4-b]pyridin-6-yl)-2,3-dihydro-1,4-benzoxazepin-4(5H)-yl]-5-methylpyrimidine-2,4-diamine] | 100 to 500 nM | ≤ 100 nM
3 | C#Cc1c(C)nc(N)nc1N1CCOc2ccc(-c3cnc4sc(N)nc4c3)cc2C1 [Compound 74, 6-[4-(2-amino-5-ethynyl-6-methylpyrimidin-4-yl)-2,3,4,5-tetrahydro-1,4-benzoxazepin-7-yl][1,3]thiazolo[5,4-b]pyridin-2-amine] | ≤ 100 nM | ≤ 100 nM
4 | C/C=C/c1c(Cl)nc(N)nc1N1CCOc2ccc(-c3cnc4sc(N)nc4c3)cc2C1 [Compound 75, 6-(4-{2-amino-6-chloro-5-[(1E)-prop-1-en-1-yl]pyrimidin-4-yl}-2,3,4,5-tetrahydro-1,4-benzoxazepin-7-yl)[1,3]thiazolo[5,4-b]pyridin-2-amine] | ≤ 100 nM | ≤ 100 nM
5 | C=CCc1c(Cl)nc(N)nc1N1CCOc2ccc(-c3cnc4sc(N)nc4c3)cc2C1 [Compound 76, 6-[4-(2-amino-6-chloro-5-prop-2-en-1-ylpyrimidin-4-yl)-2,3,4,5-tetrahydro-1,4-benzoxazepin-7-yl][1,3]thiazolo[5,4-b]pyridin-2-amine] | ≤ 100 nM | ≤ 100 nM
6 | CC#Cc1c(C)nc(N)nc1N1CCOc2ccc(-c3cnc4sc(N)nc4c3)cc2C1 [Compound 77, 6-[4-(2-amino-6-methyl-5-prop-1-yn-1-ylpyrimidin-4-yl)-2,3,4,5-tetrahydro-1,4-benzoxazepin-7-yl][1,3]thiazolo[5,4-b]pyridin-2-amine] | ≤ 100 nM | ≤ 100 nM
7 | Nc1ncc(C(F)(F)F)c(N2CCOc3ccc(-c4cnc5sc(N)nc5c4)cc3C2)n1 [Compound 78, 6-{4-[2-amino-5-(trifluoromethyl)pyrimidin-4-yl]-2,3,4,5-tetrahydro-1,4-benzoxazepin-7-yl}[1,3]thiazolo[5,4-b]pyridin-2-amine] | ≤ 100 nM | ≤ 100 nM
8 | N#Cc1cnc(N)nc1N1CCOc2ccc(-c3cnc4sc(N)nc4c3)cc2C1 [Compound 79, 2-amino-4-[7-(2-amino[1,3]thiazolo[5,4-b]pyridin-6-yl)-2,3-dihydro-1,4-benzoxazepin-4(5H)-yl]pyrimidine-5-carbonitrile] | 100 to 500 nM | ≤ 100 nM
9 | Nc1cc(N2CCOc3ccc(-c4cnc5sc(N)nc5c4)cc3C2)nc(N)n1 [Compound 80, 6-[7-(2-amino[1,3]thiazolo[5,4-b]pyridin-6-yl)-2,3-dihydro-1,4-benzoxazepin-4(5H)-yl]pyrimidine-2,4-diamine] | 100 to 500 nM | ≤ 100 nM
10 | Nc1nc2cc(-c3ccc4c(c3)CN(c3ncc(C(F)(F)F)c(N)n3)CCO4)cnc2s1 [Compound 81, 6-{4-[4-amino-5-(trifluoromethyl)pyrimidin-2-yl]-2,3,4,5-tetrahydro-1,4-benzoxazepin-7-yl}[1,3]thiazolo[5,4-b]pyridin-2-amine] | 100 to 500 nM | 100 to 500 nM
11 | Cc1nc(CNCCF)nc(N2CCOc3ccc(-c4cnc5sc(N)nc5c4)cc3C2)c1C(C)C [Compound 82, 6-{4-[2-{[(2-fluoroethyl)amino]methyl}-6-methyl-5-(1-methylethyl)pyrimidin-4-yl]-2,3,4,5-tetrahydro-1,4-benzoxazepin-7-yl}[1,3]thiazolo[5,4-b]pyridin-2-amine] | ≤ 100 nM | ≤ 100 nM
12 | C=CCc1c(C)nc(N)nc1N1CCOc2ccc(-c3cnc4sc(N)nc4c3)cc2C1 [Compound 83, 6-[4-(2-amino-6-methyl-5-prop-2-en-1-ylpyrimidin-4-yl)-2,3,4,5-tetrahydro-1,4-benzoxazepin-7-yl][1,3]thiazoloJ-[5,4-b]pyridin-2-amine] | ≤ 100 nM | ≤ 100 nM
13 | CC1(C)CC(=O)c2sc(N3CCOc4ccc(-c5cnc6sc(N)nc6c5)cc4C3)nc2C1 [Compound 84, 2-[7-(2-amino[1,3]thiazolo[5,4-b]pyridin-6-yl)-2,3-dihydro-1,4-benzoxazepin-4(5H)-yl]-5,5-dimethyl-5,6-dihydro-1,3-benzothiazol-7(4H)-one] | 100 to 500 nM | 500 to 2500 nM
14 | CC1(C)Cc2nc(N3CCOc4ccc(-c5cnc6sc(N)nc6c5)cc4C3)sc2C(=O)N1 [Compound 85, 2-[7-(2-amino[1,3]thiazolo[5,4-b]pyridin-6-yl)-23-dihydro-1,4-benzoxazepin-4(5H)-yl]-6,6-dimethyl-6,7-dihydro[1,3]thiazolo[5,4-c]pyridin-4(5H)-one] | ≤ 100 nM | 100 to 500 nM
15 | Nc1nc2cc(-c3ccc4c(c3)CN(c3ccnc([N+](=O)[O-])c3)CCO4)cnc2s1 [Compound 93, 6-[4-(2-nitropyridin-4-yl)-2,3,4,5-tetrahydro-1,4-benzoxazepin-7-yl][1,3]thiazolo[5,4-b]pyridin-2-amine] | 100 to 500 nM | 500 to 2500 nM

Results, then the compound that gave them:

Row | IC50 [1] | IC50 [2] | SMILES
16 | 500 to 2500 nM | 500 to 2500 nM | Nc1cc(N2CCOc3ccc(-c4cnc5sc(N)nc5c4)cc3C2)ccn1 [Compound 94, 6-[4-(2-aminopyridin-4-yl)-2,3,4,5-tetrahydro-1,4-benzoxazepin-7-yl][1,3]thiazolo[5,4-b]pyridin-2-amine]
17 | ≤ 100 nM | ≤ 100 nM | CC(C)c1cnc(N)nc1N1CCOc2ccc(-c3cnc4sc(N)nc4c3)cc2C1 [Compound 95, 6-{4-[2-amino-5-(1-methylethyl)pyrimidin-4-yl]-2,3,4,5-tetrahydro-1,4-benzoxazepin-7-yl}[1,3]thiazolo[5,4-b]pyridin-2-amine]
18 | ≤ 100 nM | ≤ 100 nM | COC(C)c1c(Cl)nc(N)nc1N1CCOc2ccc(-c3cnc4sc(N)nc4c3)cc2C1 (stereo not shown) [Compound 96, 6-(4-{2-amino-6-chloro-5-[1-(methyloxy)ethyl]pyrimidin-4-yl)-2,3,4,5-tetrahydro-1,4-benzoxazepin-7-yl)[1,3]thiazolo[5,4-b]pyridin-2-amine]
19 | ≤ 100 nM | ≤ 100 nM | CC1=CC(C)(C)Cc2c1nc(N)nc2N1CCOc2ccc(-c3cnc4sc(N)nc4c3)cc2C1 [Compound 97, 4-[7-(2-amino[1,3]thiazolo[5,4-b]pyridin-6-yl)-2,3-dihydro-1,4-benzoxazepin-4(5H)-yl]-6,6,8-trimethyl-5,6-dihydroquinazolin-2-amine]
20 | ≤ 100 nM | ≤ 100 nM | CC1=Cc2nc(N)nc(N3CCOc4ccc(-c5cnc6sc(N)nc6c5)cc4C3)c2CC1(C)C [Compound 98, 4-[7-(2-amino[1,3]thiazolo[5,4-b]pyridin-6-yl)-2,3-dihydro-1,4-benzoxazepin-4(5H)-yl]-6,6,7-trimethyl-5,6-dihydroquinazolin-2-amine]
21 | ≤ 100 nM | ≤ 100 nM | Cc1nc(N)nc(N2CCOc3ccc(-c4cnc5sc(N)nc5c4)cc3C2)c1C(C)C [Compound 100]
22 | ≤ 100 nM | ≤ 100 nM | Cc1nc(N)nc(N2CCOc3c(F)cc(-c4cnc5sc(N)nc5c4)cc3C2)c1C(C)C [Compound 101, 6-{4-[2-amino-6-methyl-5-(1-methylethyl)pyrimidin-4-yl]-9-fluoro-2,3,4,5-tetrahydro-1,4-benzoxazepin-7-yl}[1,3]thiazolo[5,4-b]pyridin-2-amine]
23 | ≤ 100 nM | ≤ 100 nM | Cc1nc(N)nc(N2CCOc3c(Cl)cc(-c4cnc5sc(N)nc5c4)cc3C2)c1C(C)C [Compound 102, 6-{4-[2-amino-6-methyl-5-(1-methylethyl)pyrimidin-4-yl]-9-chloro-2,3,4,5-tetrahydro-1,4-benzoxazepin-7-yl}[1,3]thiazolo[5,4-b]pyridin-2-amine]
